Results taken from paper PMC10108821, “Three tyrosine kinase inhibitors cause cardiotoxicity by inducing endoplasmic reticulum stress and inflammation in cardiomyocytes” (BMC Medicine, 2023).

Legend:
patients = settings: cited from earlier work; for level of cardiotoxicity based on literature reports: ref Table S1, 2, 4, 26–36
Cor.4U hiPSC-CMs [1] = assay: ATP level (CellTiter-Glo) in hiPSC-CMs; type: cell-based, human; settings: for effect on ATP levels: 0.32 to 10 µM, day 1 to day 5; for dose-dependent toxicity (ATP fold changes): day 1, different doses; for dose-dependent toxicity (ATP fold changes) / time-dependent toxicity (ATP fold changes): RNAseq conditions; for time-dependent toxicity (ATP fold changes): fixed dose over 5 days
Method: ATP content was measured using the CellTiter-Glo Luminescent Cell Viability Assay (Promega) following the manufacturer’s protocol. After adding CellTiter-Glo reagents and incubation, luminescence was quantified using a Synergy H1 plate reader (BioTek Instruments). ATP standards were prepared from 0.01 to 5 μM. For each drug, we fitted a four-parameter log-logistic model to calculate ED50 at day 5 (Fig S1). To rank the cellular toxicity of the eight TKIs (Fig 1T), we calculated (EC50-Cmax)/(EC50+Cmax) and arranged from the smallest to the biggest for increasing cellular toxicity.

Cor.4U hiPSC-CMs [2] = assay: 3'DGE-UMI RNAseq transcriptome of hiPSC-CMs; settings: for expression of genes associated with heart contraction: Cluster 4, day 3 or day 5; for expression of mitochondrial tRNA and electron transfer chain genes: high PC2 loadings
HELP hiPSC-CMs = assay: CardioExcyte 96 microelectrode array: base impedance and extracellular field potential; type: cell-based, human; settings: fixed doses: 10 µM, crizotinib and ponatinib 3.16 µM; up to 24 h
Method: HELP hiPSC-CMs were seeded evenly into the 96-well microelectrode array, NSP-96 0.6mm sensor plate (Nanion technologies), at 50,000 cells per well. Measurements were started after 3-5 days of culture of these cells and until the impedance and the extracellular field potential are stable. Measurements were taken a few times before drug addition, and every 30~60 minutes after the drugs were added at 2x concentration. Values were averaged from 3 wells per group. Beat rate, amplitude of impedance, base impedance and FPDc were calculated by the Cardio Excyte Control 96 software package (Nanion Technologies).

NRCMs [3] = assay: Seahorse assay: oxygen consumption and extracellular acidification; type: cell-based, rat; settings: 24 h; fixed doses: 10 µM, crizotinib and ponatinib 3.16 µM
Method: (§1) Rats were euthanized by decapitation and thoracic cavity was opened with scissors and hearts were popped out of the opening gently with fingers. Hearts were clipped and put in HBSS immediately; 20–40 hearts were collected into one sterile vial containing a magnetic stir bar and 1 mL digestive media made of 0.1% trypsin (Macklin) and 0.05% collagenase (Gibco) in HBSS. Hearts were minced until they were uniform in size. Digestive media was added to 10 mL for 40 hearts and stirred gently for 6 min. Supernatant was discarded and the digestion was repeated once; 10 mL digestive media was added and stirred gently for 10 min. The supernatant with cells were collected and the digestion and collection were repeated 4 times. Cells were centrifuged at 1200 rpm for 5 min, resuspended in media (Dulbecco’s modified Eagleʼs medium (Gibco)) with 10% fetal bovine serum (FBS; VISTECH), 1% penicillin–streptomycin, and 1% 0.1 M 5-bromo-2-deoxyuridine solution (Shanghai Yuanye) and filtered through a 40-μm cell strainer. Cells were seeded on a 100-mm plastic dish and cultured in a 5% CO2 incubator at 37 °C for 2 h to allow non-myocytes to adhere to the plate. The dish was swirled and media gently pipetted up and down to detach lightly attached cardiomyocytes. The collected myocytes were seeded in the same media described before; 48 h after plating, medium was exchanged to fresh DMEM (Gibco) with or without 2% FBS. All drug treatments were performed after this media change.
NRCMs were seeded evenly into the Seahorse XF96 cell culture plates (Agilent) and cultured in DMEM high glucose with 2% FBS. About 2 hours before the test, cells were moved to a non-CO2 incubator at 37 ° C and incubated for 1 hour. 1 hour prior to the test, culture media was replaced with the Seahorse Basal DMEM at 37°C (with appropriate concentration of glucose, 4mM L-glutamine, 1 mM sodium pyruvate and 1% penicillin-streptomycin solution) and incubated in a non-CO2 incubator at 37°C for 1 hour. Drugs were prepared at 8x to 10x concentrations with the corresponding seahorse media as in each well and added into ports of Seahorse XF96 cartridge plates which have been hydrated overnight. XFe96 Extracellular Flux Analyzer (Agilent) was used to measure oxygen consumption rate and extracellular acidification rate of cells with different drug treatments.

NRCMs [4] = assay: Mitochondrial membrane potential by TMRE staining; type: cell-based, rat; settings: 24 h of treatment
ER stress genes in NRCMs = assay: qRT-PCR of ER stress genes in NRCMs; type: cell-based, rat; settings: trolox 1 mM with afatinib or sorafenib
Method: as §1, with “The collected myocytes were seeded in the same media described before; 48 h after plating, medium was exchanged to fresh DMEM (Gibco) with or without 2% FBS.” left out
RNA was isolated based on a standard protocol using TRIzol reagent (Vazyme). TRIzol (1ml per 1 well of a 6-well plate) was used to lyse cells and chloroform was added for RNA separation. Samples were shaked vigorously by hand for 15 seconds and incubated at room temperature for 2-3 minutes. RNA was present in the aqueous phase after centrifuge at 12000 x g for 15 minutes. Isopropyl alcohol was mixed to precipitate RNA from the aqueous phase. […] 1 μg total RNA was used for cDNA synthesis using a reverse transcription kit (Bioman). We then measured expression of genes of interest with SYBRR Green qPCR Mix (Bioman) using Applied Biosystems 7500 Quantitative PCR Instrument. Gene expression was normalized to the 18S ribosomal RNA expression and primers were listed in Primers Table.

NRCMs [5] = assay: Lipid peroxidation by C11-bodipy 581/591 and flow cytometry; settings: 100 µM, 3 hours, Fig. S15
Method: For ROS assessment, cells were washed with PBS once and stained with 10μM H2DCFHDA (MCE) in phenol red-free DMEM (Procell) in a humid incubator with 5% CO2 at 37°C for 30 minutes. Cells were washed with PBS twice and dissociated to single cells before flow cytometry analysis at the FITC channel. For lipid peroxidation measurement, cells were washed with PBS once and stained with 2μM C11-bodipy^581/591 (Cayman) in phenol red-free DMEM (Procell) in a humid incubator with 5% CO2 at 37°C for 30 minutes. Cells were washed with PBS twice and dissociated to single cells before flow cytometry analysis at both the FITC and the PE channels. Fluorescence of the oxidized C11-bodipy were acquired through the FITC channel (Ex/Em=488/520nm) and that of the non-oxidized C11-bodipy through the PE channel (Ex/Em=555/624nm).

NRCMs [6] = assay: qRT-PCR of fetal, pro-inflammatory and ER stress genes with pathway-selective inhibitors; type: cell-based, rat; settings: 24 h
Method: as §1
(§2) RNA was isolated based on a standard protocol using TRIzol reagent (Vazyme). TRIzol (1ml per 1 well of a 6-well plate) was used to lyse cells and chloroform was added for RNA separation. Samples were shaked vigorously by hand for 15 seconds and incubated at room temperature for 2-3 minutes. RNA was present in the aqueous phase after centrifuge at 12000 x g for 15 minutes. Isopropyl alcohol was mixed to precipitate RNA from the aqueous phase. RNA precipitations were washed with 75% ethanol once and re-dissolved in RNase-free water. 1 μg total RNA was used for cDNA synthesis using a reverse transcription kit (Bioman). We then measured expression of genes of interest with SYBRR Green qPCR Mix (Bioman) using Applied Biosystems 7500 Quantitative PCR Instrument. Gene expression was normalized to the 18S ribosomal RNA expression and primers were listed in Primers Table.

NRCMs [7] = settings: ISRIB 200 nM or 4μ8c 10 μM with 10 µM sorafenib, 24-hr
Method: After treatment, cells were stained with 5 μg/mL Propidium iodide (Sigma-Aldrich) mixed with Hoechst33342 (Solarbio) in Phenol red-free DMEM (Procell) in a 5% CO2 incubator at 37°C for 30 minutes. Images of PI staining were acquired through the filter Ex/Em=555/624nm and of the nuclei staining through the filter Ex/Em=405/452 using ImageXpress Micro Confocal-AWES (Molecular Devices).

H9C2 cell line = assay: qRT-PCR of inflammatory genes in H9C2 cells; type: cell-based, rat; settings: ISRIB 200 nM or salubrinal 20 μM with 3 TKIs, 24-hr
Method: as §2
H9C2 cells were a gift from Dr. Rong Qi in Peking University Health Science Center (they were originally purchased from the Cell Bank/Stem cell bank, Chinese Academy of Science). […] Media was changed to DMEM (Gibco) containing 2% FBS 12 hours before treatment. All treatments were performed under DMEM containing 2% FBS.

effect on beat rate, contraction, base impedance and corrected field potential duration (HELP hiPSC-CMs)	Compound	level of cardiotoxicity based on literature reports (patients)	effect on ATP levels (Cor.4U hiPSC-CMs [1])	dose-dependent toxicity (ATP fold changes) (Cor.4U hiPSC-CMs [1])	basal oxygen consumption rate (OCR) (NRCMs [3])	other results
minimal effects on these parameters	COc1cc2ncnc(Nc3ccc(F)c(Cl)c3)c2cc1OCCCN1CCOCC1 [gefitinib]	low cardiotoxicity	did not inhibit ATP at any dose or time point tested	did not		expression of genes associated with heart contraction (Cor.4U hiPSC-CMs [2]): upregulated
	Cc1c(C)c2c(c(C)c1O)CCC(C)(C(=O)O)O2 (stereo not drawn) [trolox]					effect on induction of ER stress by TKIs (ER stress genes in NRCMs): did not block the induction of ER stress by these TKIs
minimal effects on these parameters	Cc1cn(-c2cc(NC(=O)c3ccc(C)c(Nc4nccc(-c5cccnc5)n4)c3)cc(C(F)(F)F)c2)cn1 [nilotinib]	medium-levels of cardiotoxicity	dose-dependent and time-dependent reduction in ATP levels			EC50 (ATP) compared with maximal plasma concentration (Cmax) (Cor.4U hiPSC-CMs [1]; day 5): lower than or similar to their maximal plasma concentrations (Cmax); mitochondrial membrane potential (NRCMs [4]): trend of decreasing mitochondrial membrane potentials
	CC(C)(OO)c1ccccc1 [cumene hydroperoxide]					level of lipid peroxidation, positive control (NRCMs [5]): 42%
minimal effects on these parameters	Cc1nc(Nc2ncc(C(=O)Nc3c(C)cccc3Cl)s2)cc(N2CCN(CCO)CC2)n1 [dasatinib]	medium-levels of cardiotoxicity	did not inhibit ATP at any dose or time point tested	did not	trend of inhibiting basal oxygen consumption rate (OCR)	time-dependent toxicity (ATP fold changes) (Cor.4U hiPSC-CMs [1]): increasing toxicity with treatment duration; expression of genes associated with heart contraction (Cor.4U hiPSC-CMs [2]): upregulated
	Cc1cc(=O)oc2c(C=O)c(O)ccc12 [4μ8c]					induction of inflammatory genes and cardiac fetal genes (Anp, Bnp/Nppb, Myh6) by TKIs (NRCMs [6]; 4μ8c 10 μM co-treatment with TKIs): blunted; effect on Atf4, Ddit3, Xbp1s and Dnajb9 expression induced by TKIs (NRCMs [6]; ISRIB 200 nM or 4μ8c 10 μM with TKIs): inhibited Xbp1s and Dnajb9 without affecting the ATF4 axis; rescue from cell death induced by sorafenib (NRCMs [7]): significantly rescued cardiac cell from death induced by sorafenib
	O=C(/C=C/c1ccccc1)NC(NC(=S)Nc1cccc2cccnc12)C(Cl)(Cl)Cl (stereo not drawn) [salubrinal]					expression of inflammatory genes induced by TKIs (H9C2 cell line): increased the expression level of some pro-inflammatory genes, such as Nfkb1, Il6, and Tnf, but not Il1b

Compound	effect on beat rate, contraction, base impedance and corrected field potential duration (HELP hiPSC-CMs)	level of cardiotoxicity based on literature reports (patients)	effect on ATP levels (Cor.4U hiPSC-CMs [1])	dose-dependent toxicity (ATP fold changes) (Cor.4U hiPSC-CMs [1])	basal oxygen consumption rate (OCR) (NRCMs [3])	other results
CCN(CC)CCNC(=O)c1c(C)[nH]c(/C=C2\C(=O)Nc3ccc(F)cc32)c1C [sunitinib]	increased beat rate initially and reduced the base impedance very acutely	high-levels of cardiotoxicity	dose-dependent and time-dependent reduction in ATP levels	dose-dependent toxicity	trend of inhibiting basal oxygen consumption rate (OCR)	congestive heart failure (patients; meta-analysis of 6935 patients): 4.1%; maximal, spare and non-mitochondrial oxygen consumption (NRCMs [3]): inhibited maximal, spare, and non-mitochondrial oxygen consumption significantly; time-dependent toxicity (ATP fold changes) (Cor.4U hiPSC-CMs [1]): increasing toxicity with treatment duration; expression of mitochondrial tRNA and electron transfer chain genes (Cor.4U hiPSC-CMs [2]): upregulated; mitochondrial membrane potential (NRCMs [4]): trend of decreasing mitochondrial membrane potentials
C[C@@H](Oc1cc(-c2cnn(C3CCNCC3)c2)cnc1N)c1c(Cl)ccc(F)c1Cl [crizotinib]	stopped beating and contraction of hiPSC-CMs after 0.5 h of treatment	medium-levels of cardiotoxicity	dose-dependent and time-dependent reduction in ATP levels	dose-dependent toxicity	trend of inhibiting basal oxygen consumption rate (OCR)	expression of mitochondrial tRNA and electron transfer chain genes (Cor.4U hiPSC-CMs [2]): upregulated
